Data published in ChEMBL document CHEMBL3758085, “Synthesis and cytotoxicity of thieno[2,3-b]quinoline-2-carboxamide and cycloalkyl[b]thieno[3,2-e]pyridine-2-carboxamide derivatives” (Bioorg Med Chem, 2016).
pIC50: −log10 of the molar value.

Key:
[1] = system: MDA-MB-468; assay: Antiproliferative activity against human MDA-MB-468 cells assessed as cell growth at 1 uM incubated for 3 days by 3H-thymidine incorporation assay relative to control; assay type: functional; conditions: read-out: Activity
[2] = Antiproliferative activity against human HCT116 cells assessed as cell growth at 1 uM incubated for 3 days by 3H-thymidine incorporation assay relative to control; assay type: functional; conditions: HCT-116, read-out: Activity
[3] = system: MDA-MB-231; assay: Antiproliferative activity against human MDA-MB-231 cells assessed as cell growth at 1 uM incubated for 3 days by 3H-thymidine incorporation assay relative to control; assay type: functional; conditions: read-out: Activity
[4] = system: MDA-MB-468; assay: Antiproliferative activity against human MDA-MB-468 cells assessed as cell growth incubated for 3 days by 3H-thymidine incorporation assay relative to control; assay type: functional, cell-based
[5] = Antiproliferative activity against human HCT116 cells assessed as cell growth incubated for 3 days by 3H-thymidine incorporation assay relative to control; assay type: functional, cell-based; conditions: HCT-116
[6] = system: MDA-MB-231; assay: Antiproliferative activity against human MDA-MB-231 cells assessed as cell growth incubated for 3 days by 3H-thymidine incorporation assay relative to control; assay type: functional, cell-based
[7] = system: K562; assay: Antiproliferative activity against human K562 cells assessed as cell growth incubated for 3 days by 3H-thymidine incorporation assay relative to control; assay type: functional, cell-based

Compound	growth at 1 µM [1] [%]	growth at 1 µM [2] [%]	growth at 1 µM [3] [%]	pIC50 [4]	pIC50 [5]	pIC50 [6]	pIC50 [7]
Nc1c(C(=O)Nc2ccccc2C(F)(F)F)sc2nc3c(cc12)CCCC3	93	104	128				
Nc1c(C(=O)Nc2ccccc2)sc2nc3c(cc12)CCCCC3	5	6	26	6.42	6.22	6.29	6.24
O=c1c2sc3ncccc3c2ncn1-c1ccccc1	101	96	107				
Nc1c(C(=O)Nc2ccc3ccccc3c2)sc2nc3c(cc12)CCC3	64	94	81				
CCOc1ccc2nc3sc(C(=O)Nc4ccc(C(C)=O)cc4)c(N)c3cc2c1	87	96	97				
Cc1ccccc1NC(=O)c1sc2nc3c(cc2c1N)CCCCC3	25	66	43				
Cc1ccc2nc3sc(C(=O)Nc4cccc(F)c4)cc3cc2c1	91	98	103				
COc1ccc(OC)c(NC(=O)c2sc3nc4c(cc3c2N)CCCCCC4)c1	94	107	131				
CCc1ccccc1NC(=O)c1sc2nc3c(cc2c1N)CCCC3	63	86	89				
Cc1ccc2cc3c(N)c(C(=O)Nc4ccccc4[N+](=O)[O-])sc3nc2c1	101	102	90				
Nc1c(C(=O)Nc2cccc(F)c2)sc2nc3c(cc12)CCCC3	11	11	30	6.40	6.25	6.20	6.26
Cc1ccccc1NC(=O)c1sc2nc3c(cc2c1N)CCCC3	53	84	70				
CC(=O)c1ccc(NC(=O)c2sc3nc4ccccc4cc3c2N)cc1	70	93	95				
Cc1ccc2nc3sc(C(=O)Nc4ccccc4)cc3cc2c1	81	95	92				
Cc1ccc2nc3sc(C(=O)Nc4cccnc4)cc3cc2c1	101	102	81				
CCOc1ccc2nc3sc(C(=O)Nc4ccc(Cl)cc4)c(N)c3cc2c1	93	100	97				
Cc1cc(C)c(NC(=O)c2sc3nc4c(cc3c2N)CCCCC4)c(C)c1	89	99	98				
Cc1cc(C)c(NC(=O)c2sc3nc4c(cc3c2N)CCCC4)c(C)c1	93	101	97				
COc1ccc(NC(=O)c2sc3nc4c(cc3c2N)CCCC4)cc1	84	99	98				
Nc1c(C(=O)Nc2cccc([N+](=O)[O-])c2)sc2nc3c(cc12)CCCCC3	18	51	67				
CCc1cccc(NC(=O)c2sc3nc4c(cc3c2N)CC(CC)CC4)c1 (stereo unspecified)	12	73	73				

Compound	growth at 1 µM [1] [%]	growth at 1 µM [2] [%]	growth at 1 µM [3] [%]	pIC50 [4]	pIC50 [5]	pIC50 [6]	pIC50 [7]
Nc1c(C(=O)Nc2cc(C(F)(F)F)ccc2Cl)sc2nc3c(cc12)CCCCC3	106	98	105				
Nc1c(C(=O)Nc2cccc(Cl)c2)sc2nc3c(cc12)CCC3	53	87	92				
Nc1c(C(=O)Nc2ccc(F)cc2)sc2nc3c(cc12)CCCCCC3	65	82	100				
Cc1ccc2cc3cc(C(=O)Nc4cnc5ccccc5c4)sc3nc2c1	87	99	97				
Nc1c(C(=O)Nc2cccc([N+](=O)[O-])c2)sc2nc3c(cc12)CCC3	46	79	79				
COc1ccc2nc3sc(C(=O)Nc4cc(Cl)ccc4OC)c(N)c3cc2c1	104	100	86				
Nc1c(C(=O)Nc2cccc3ccccc23)sc2nc3c(cc12)CCCCC3	91	93	106				
Nc1c(C(=O)Nc2ccccc2)sc2nc3c(cc12)CCC3	76	94	90				
COc1ccc(OC)c(NC(=O)c2sc3nc4c(cc3c2N)CCCCC4)c1	94	98	117				
COc1ccc(NC(=O)c2sc3nc4c(cc3c2N)CCCCCC4)cc1OC	107	106	102				
CC(=O)c1cccc(NC(=O)c2sc3nc4c(cc3c2N)CCCCCC4)c1	72	85	117				
Nc1c(C(=O)Nc2cccc(Cl)c2)sc2nc3c(cc12)CCCCC3	39	86	95				
Nc1c(C(=O)Nc2ccc(Cl)cc2)sc2nc3c(cc12)CCCCCC3	82	94	117				
COc1ccc(NC(=O)c2sc3nc4c(cc3c2N)CCCCCC4)c(OC)c1	110	109	119				
COc1ccc(NC(=O)c2sc3nc4c(cc3c2N)CCCCCC4)cc1	84	106	107				
Nc1c(C(=O)Nc2cccc([N+](=O)[O-])c2)sc2nc3c(cc12)CCCC3	44	75	71				
Nc1c(C(=O)Nc2cccc(Br)c2)sc2nc3c(cc12)CCCC3	45	85	101				
Nc1c(C(=O)Nc2ccccc2F)sc2nc3c(cc12)CCCC3	48	84	92				
Cc1ccc2nc3sc(C(=O)Nc4ccccc4C)cc3cc2c1	89	99	104				
CCc1cccc(C)c1NC(=O)c1sc2nc3c(cc2c1N)CCCC3	67	96	84				
CCCCOc1cccc(NC(=O)c2sc3nc4c(cc3c2N)CCCCC4)c1	53	97	100				

Compound	growth at 1 µM [1] [%]	growth at 1 µM [2] [%]	growth at 1 µM [3] [%]	pIC50 [4]	pIC50 [5]	pIC50 [6]	pIC50 [7]
Nc1c(C(=O)Nc2ccccc2Cl)sc2nc3c(cc12)CCCCC3	73	92	89				
Nc1c(C(=O)Nc2cccc(Br)c2)sc2nc3c(cc12)CCC3	53	93	94				
COc1ccc(NC(=O)c2sc3nc4c(cc3c2N)CCCCC4)cc1OC	77	98	114				
Nc1c(C(=O)Nc2ccc(Cl)c(Cl)c2)sc2nc3c(cc12)CCCCC3	77	103	115				
Nc1c(C(=O)Nc2cccc3ccccc23)sc2nc3c(cc12)CCC3	67	92	80				
Cc1cccc(NC(=O)c2cc3cc4cc(C)ccc4nc3s2)c1	84	100	105				
CCc1cccc(CC)c1NC(=O)c1sc2nc3c(cc2c1N)CCCC3	116	108	115				
Nc1c(C(=O)Nc2ccccc2C(F)(F)F)sc2nc3c(cc12)CCCCC3	100	112	124				
Nc1c(C(=O)Nc2cccc(C(F)(F)F)c2)sc2nc3c(cc12)CCCCC3	92	108	94				
Nc1c(C(=O)Nc2ccc3ccccc3c2)sc2nc3c(cc12)CCCCC3	97	103	118				
COc1ccc(NC(=O)c2sc3nc4ccccc4cc3c2N)cc1	68	97	101				
Nc1c(C(=O)Nc2cccc(Br)c2)sc2nc3c(cc12)CCCCC3	45	83	92				
Nc1c(C(=O)Nc2ccccc2)sc2nc3c(c(-c4ccco4)c12)CCCCC3	71	65	89				
Nc1c(C(=O)Nc2cccc(C(F)(F)F)c2)sc2nc3c(cc12)CCCC3	41	82	108				
Nc1c(C(=O)Nc2c(Cl)cccc2Cl)sc2nc3c(cc12)CCCC3	82	100	93				
Nc1c(C(=O)Nc2ccccc2Cl)sc2nc3c(c(C(F)(F)F)c12)CCCCCC3	100	112	116				
Nc1c(C(=O)Nc2ccc3ccccc3c2)sc2nc3c(cc12)CCCC3	76	100	120				
Nc1c(C(=O)Nc2cccc(C(F)(F)F)c2)sc2nc3c(cc12)CCC3	58	90	100				
Cc1ccc(C)c(NC(=O)c2cc3cc4cc(C)ccc4nc3s2)c1	77	98	103				
